# Measurements: patent publication US20260355196A1, “INHIBITORS AND DEGRADERS OF PIP4K PROTEIN” (Larkspur Biosciences, Inc., priority 2023, published 2026)
# Target: T1, PIP4K2C (Homo sapiens, UniProt Q8TBX8)
# T1 sequence (Q8TBX8 1-421): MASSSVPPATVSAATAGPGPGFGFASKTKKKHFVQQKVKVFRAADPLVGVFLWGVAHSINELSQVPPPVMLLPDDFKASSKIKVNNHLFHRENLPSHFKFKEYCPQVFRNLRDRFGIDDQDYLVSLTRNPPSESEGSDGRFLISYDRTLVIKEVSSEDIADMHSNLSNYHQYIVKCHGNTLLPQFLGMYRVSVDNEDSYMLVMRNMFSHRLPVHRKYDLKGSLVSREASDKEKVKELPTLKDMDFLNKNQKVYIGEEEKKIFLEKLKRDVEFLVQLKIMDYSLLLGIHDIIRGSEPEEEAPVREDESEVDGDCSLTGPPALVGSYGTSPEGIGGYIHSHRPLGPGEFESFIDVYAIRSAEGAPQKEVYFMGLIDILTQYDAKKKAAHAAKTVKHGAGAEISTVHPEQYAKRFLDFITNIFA
# Test: HiBiT PIP4K2C degradation assay in MOLT-4 cells (endogenous PIP4K2C C-terminally tagged with HiBiT)
# Assay type: cell-based
# Parameters: untagged in primary human PBMCs and monocyte-derived dendritic cells
# Details: 6 hours of incubation time, rather than 24 hours; MOLT-4, top concentration 10 micromolar; read-out: HiBIT-degradation MOLT4 PIP4k2C DC50 (6 hours, marked *)
# Summary of the method: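 Endogenous PIP4K2C was C-terminally HiBiT-tagged by CRISPR-Cas9 in MOLT-4 cells, which were treated with a 10-point, 3-fold dilution series from 10 micromolar in duplicate for 24 or 6 hours at 37 C. Remaining protein was read by HiBiT lytic luminescence, and DC50 came from a Hill fit.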
row,Compound,DC50 [nM]
1,"O=C1CCC(n2c(=O)oc3cc(N4CCN(CC5CCN(C(=O)[C@H]6CC[C@H](Nc7ncc(F)c(-c8cccc(-n9ccccc9=O)c8)n7)CC6)CC5)CC4)ccc32)C(=O)N1 (stereo partly drawn) [Compound 397, trans-3-(6-(4-((1-(4-((5-fluoro-4-(3-(2-oxopyridin-1(2H)-yl)phenyl)pyrimidin-2-yl)amino)cyclohexane-1-carbonyl)piperidin-4-yl)methyl)piperazin-1-yl)-2-oxobenzo[d]oxazol-3 (2H)-yl)piperidine-2,6-dione]",< 500
2,"O=C1CCC(Nc2ccc(N3CCC(CN4CCN(C(=O)[C@H]5CC[C@H](Nc6ncc(F)c(-c7cccc(N8CCCCC8=O)c7)n6)CC5)CC4)CC3)c(F)c2)C(=O)N1 (stereo partly drawn) [Compound 415, trans-3-((3-fluoro-4-(4-((4-(4-((5-fluoro-4-(3-(2-oxopiperidin-1-yl)phenyl)pyrimidin-2-yl)amino)cyclohexane-1-carbonyl)piperazin-1-yl)methyl)piperidin-1-yl)phenyl)amino)piperidine-2,6-dione]",< 500
3,"O=C1CCC(n2c(=O)oc3cc(C4CCN(CCC5CCN(C(=O)[C@@H]6CCC[C@H](Nc7ncc(F)c(-c8cccc(-n9ccccc9=O)c8)n7)C6)CC5)CC4)ccc32)C(=O)N1 (stereo partly drawn) [Compound 350, 3-(6-(1-(2-(1-((1R,3S)-3-((5-fluoro-4-(3-(2-oxopyridin-1(2H)-yl)phenyl)pyrimidin-2-yl)amino)cyclohexane-1-carbonyl)piperidin-4-yl)ethyl)piperidin-4-yl)-2-oxobenzo[d]oxazol-3 (2H)-yl)piperidine-2,6-dione]",< 500

# The remaining lines, values ahead:
row,DC50 [nM],Compound
1,< 500,"Cn1nc(C2CCC(=O)NC2=O)c2ccc(N3CCN(C[C@H]4CC[C@H](C(=O)N[C@H]5CC[C@H](Nc6ncc(F)c(-c7cccc(-n8ccccc8=O)c7)n6)CC5)CC4)CC3)cc21 (stereo partly drawn) [Compound 489, trans-(1r,4R)-4-((4-(3-(2,6-dioxopiperidin-3-yl)-1-methyl-1H-indazol-6-yl)piperazin-1-yl)methyl)-N-((1r,4R)-4-((5-fluoro-4-(3-(2-oxopyridin-1(2H)-yl)phenyl)pyrimidin-2-yl)amino)cyclohexyl)cyclohexane-1-carboxamide]"
2,< 500,"O=C1CCC(Nc2ccc(N3CCC(CC4(O)CCN(C(=O)[C@H]5CC[C@H](Nc6ncc(F)c(-c7cccc(-n8ccccc8=O)c7)n6)CC5)CC4)CC3)c(F)c2)C(=O)N1 (stereo partly drawn) [Compound 691, trans-3-((3-fluoro-4-(4-((1-(4-((5-fluoro-4-(3-(2-oxopyridin-1 (2H)-yl)phenyl)pyrimidin-2-yl)amino)cyclohexane-1-carbonyl)-4-hydroxypiperidin-4-yl)methyl)piperidin-1-yl)phenyl)amino)piperidine-2,6-dione]"
3,< 500,"O=C1CCC(Nc2ccc(N3CCN(C4CCN(C(=O)O[C@H]5CC[C@H](Nc6ncc(F)c(-c7cccc(N8CCOCC8=O)c7)n6)CC5)CC4)CC3)c(F)c2)C(=O)N1 (stereo partly drawn) [Compound 688, trans-4-((5-fluoro-4-(3-(3-oxomorpholino)phenyl)pyrimidin-2-yl)amino)cyclohexyl 4-(4-(4-((2,6-dioxopiperidin-3-yl)amino)-2-fluorophenyl)piperazin-1-yl)piperidine-1-carboxylate]"
4,< 500,"O=C1CCC(Nc2ccc(C3CCN(CC4(O)CCN(C(=O)[C@H]5CC[C@H](Nc6ncc(F)c(-c7cccc(C8CC8)c7)n6)CC5)CC4)CC3)c(F)c2)C(=O)N1 (stereo partly drawn) [Compound 518, trans-3-((4-(1-((1-(4-((4-(3-cyclopropylphenyl)-5-fluoropyrimidin-2-yl)amino)cyclohexane-1-carbonyl)-4-hydroxypiperidin-4-yl)methyl)piperidin-4-yl)-3-fluorophenyl)amino)piperidine-2,6-dione]"
5,< 500,"O=C1CCC(Nc2ccc(C3CCN([C@H]4CC[C@H](C(=O)N[C@H]5CC[C@H](Nc6ncc(F)c(-c7cccc(N8CCOCC8)c7)n6)CC5)CC4)CC3)c(F)c2)C(=O)N1 (stereo partly drawn) [Compound 659, trans-(1r,4R)-4-(4-(4-((2,6-dioxopiperidin-3-yl)amino)-2-fluorophenyl)piperidin-1-yl)-N-((1r,4R)-4-((5-fluoro-4-(3-morpholinophenyl)pyrimidin-2-yl)amino)cyclohexyl)cyclohexane-1-carboxamide]"

# Same assay, conditions: 24 hours incubation, MOLT-4, top concentration 10 micromolar; read-out: HiBIT-degradation MOLT4 PIP4k2C 24 hours DC50
row,DC50 [nM],Compound
1,< 500,"O=C1CCC(N2Cc3cc(C4CCN(C5CCN(CC(=O)N6CCC[C@H](Nc7ncc(Cl)c(-c8cccc(-c9ccccc9)c8)n7)C6)CC5)CC4)ccc3C2=O)C(=O)N1 (stereo partly drawn) [Compound 70, 3-(5-(1′-(2-((S)-3-((4-([1,1′-biphenyl]-3-yl)-5-chloropyrimidin-2-yl)amino)piperidin-1-yl)-2-oxoethyl)-[1,4′-bipiperidin]-4-yl)-1-oxoisoindolin-2-yl)piperidine-2,6-dione]"
2,< 500,"O=C(COc1ccc2c(c1)CN(C1CCC(=O)NC1=O)C2=O)NCCCC(=O)N1CCC(C(=O)N2CCC(Nc3ncc(Cl)c(-c4cccc(-c5ccccc5)c4)n3)CC2)CC1 (centres unmarked) [Compound 68, N-(4-(4-(4-((4-([1,1′-biphenyl]-3-yl)-5-chloropyrimidin-2-yl)amino)piperidine-1-carbonyl)piperidin-1-yl)-4-oxobutyl)-2-((2-(2,6-dioxopiperidin-3-yl)-1-oxoisoindolin-5-yl)oxy)acetamide]"
3,< 500,"O=C1CCC(n2c(=O)oc3cc(C4CCN(CC5CCN(CC(=O)N6CCC(Nc7ncc(F)c(-c8cccc(-n9ccccc9=O)c8)n7)CC6)CC5)CC4)ccc32)C(=O)N1 (centres unmarked) [Compound 303, 3-(6-(1-((1-(2-(4-((5-fluoro-4-(3-(2-oxopyridin-1(2H)-yl)phenyl)pyrimidin-2-yl)amino)piperidin-1-yl)-2-oxoethyl)piperidin-4-yl)methyl)piperidin-4-yl)-2-oxobenzo[d]oxazol-3 (2H)-yl)piperidine-2,6-dione]"
4,< 500,"O=C1CCC(n2c(=O)oc3cc(N4CCN(CC5CCN(CC(=O)N[C@H]6CC[C@H](Nc7ncc(F)c(-c8cccc(-n9ccccc9=O)c8)n7)CC6)CC5)CC4)ccc32)C(=O)N1 (stereo partly drawn) [Compound 339, trans-2-(4-((4-(3-(2,6-dioxopiperidin-3-yl)-2-oxo-2,3-dihydrobenzo[d]oxazol-6-yl)piperazin-1-yl)methyl)piperidin-1-yl)-N-(4-((5-fluoro-4-(3-(2-oxopyridin-1(2H)-yl)phenyl)pyrimidin-2-yl)amino)cyclohexyl)acetamide]"
5,< 500,"O=C1CCC(n2c(=O)oc3cc(N4CCC(CN5CCC(CC(=O)N[C@H]6CC[C@H](Nc7ncc(F)c(-c8cccc(-n9ccccc9=O)c8)n7)CC6)CC5)CC4)ccc32)C(=O)N1 (stereo partly drawn) [Compound 358, trans-2-(1-((1-(3-(2,6-dioxopiperidin-3-yl)-2-oxo-2,3-dihydrobenzo[d]oxazol-6-yl)piperidin-4-yl)methyl)piperidin-4-yl)-N-(4-((5-fluoro-4-(3-(2-oxopyridin-1(2H)-yl)phenyl)pyrimidin-2-yl)amino)cyclohexyl)acetamide]"
6,< 500,"O=C1CCC(N2Cc3cc(OC4CCN(CCN5CCC(C(=O)N6CCC(Nc7ncc(Cl)c(-c8cccc(-c9ccccc9)c8)n7)CC6)CC5)CC4)ccc3C2=O)C(=O)N1 (centres unmarked) [Compound 89, 3-(5-((1-(2-(4-(4-((4-([1,1′-biphenyl]-3-yl)-5-chloropyrimidin-2-yl)amino)piperidine-1-carbonyl)piperidin-1-yl)ethyl)piperidin-4-yl)oxy)-1-oxoisoindolin-2-yl)piperidine-2,6-dione]"
7,< 500,"O=C1CCC(Nc2ccc(N3CCN(CC4CCN(C(=O)[C@H]5CC[C@H](Nc6ncc(F)c(-c7cccc(-n8ccccc8=O)c7)n6)CC5)CC4)CC3)c(F)c2)C(=O)N1 (stereo partly drawn) [Compound 374, trans-3-((3-fluoro-4-(4-((1-(4-((5-fluoro-4-(3-(2-oxopyridin-1(2H)-yl)phenyl)pyrimidin-2-yl)amino)cyclohexane-1-carbonyl)piperidin-4-yl)methyl)piperazin-1-yl)phenyl)amino)piperidine-2,6-dione]"
8,< 500,"O=C1CCC(Nc2ccc(C3CCN([C@H]4CC[C@@H](CNC(=O)[C@H]5CCC[C@@H](Nc6ncc(F)c(-c7cccc(-n8ccccc8=O)c7)n6)C5)CC4)CC3)c(F)c2)C(=O)N1 (relative stereo) [Compound 337, cis-N-((cis-4-(4-(4-((2,6-dioxopiperidin-3-yl)amino)-2-fluorophenyl)piperidin-1-yl)cyclohexyl)methyl)-3-((5-fluoro-4-(3-(2-oxopyridin-1(2H)-yl)phenyl)pyrimidin-2-yl)amino)cyclohexane-1-carboxamide]"
9,< 500,"O=C1CCC(Nc2ccc(C3CCN(CC4CCN(CC(=O)N[C@H]5CC[C@H](Nc6ncc(F)c(-c7cccc(-c8ccc[nH]c8=O)c7)n6)CC5)CC4)CC3)c(F)c2)C(=O)N1 (stereo partly drawn) [Compound 365, trans-2-(4-((4-(4-((2,6-dioxopiperidin-3-yl)amino)-2-fluorophenyl)piperidin-1-yl)methyl)piperidin-1-yl)-N-(4-((5-fluoro-4-(3-(2-oxo-1,2-dihydropyridin-3-yl)phenyl)pyrimidin-2-yl)amino)cyclohexyl)acetamide]"
